Common to all, as to assay type: cell-based
One assay has as its system GP2d. As to the kind of experiment: Cell proliferation (cell count by microscopy), Example 3. Conditions: single agent, 72 h, cell count relative to DMSO, unit (micromolar, top dose 10 μM). As to the method:
(§1) COMPOUNDS A, B and C were dissolved in 100% DMSO (Sigma, Catalog number D2650) at concentrations of 20 mM and stored at −20° C. until use. Compounds were arrayed in drug master plates (Greiner, Catalog number 788876) and serially diluted 3-fold (7 steps) at 2000× concentration.
(§2) To test the effect of the combination of COMPOUND A, COMPOUND B, and COMPOUND C on cell proliferation cells were plated in black 384-well microplates with clear bottom (Matrix/Thermo Scientific, Catalog number 4332) in 50 μL media per well at cell densities between 500 and 1250 cells/well (Table 1 above) and allowed to incubate at 37 degrees, 5% CO2 for 24 h. After 24 h one 384-well plate per cell line was prepared for cell counting by microscopy (see below) without receiving treatment (=‘baseline’). The other cell plates were treated by transferring 25 nL of the 2000× compound from drug master plates using an ATS acoustic liquid dispenser (ECD Biosystems) and resulting in a final 1× concentration. COMPOUND A was used over a final concentration range of 13 nM-10 μM, COMPOUND B was used over a final concentration range of 13 nM-10 μM, and COMPOUND C was used over a final concentration range of 13 nM-10 μM (7 1:3 dilution steps). In order to assess the effect of the triple combination all individual COMPOUNDS (A, B, C), all three pair wise combinations (A+B, A+C, B+C), and the triple combination (A+B+C) were tested in the same experiment. Pair wise combinations and the triple combination were tested at a fixed ratio of 1:1 (for drug pairs) and 1:1:1 (for the drug triple) at each dilution resulting in 7 combination conditions per treatment. […] After compound addition 50 nL of 2 mM CellEvent Caspase-3/7 Green Detection Reagent (ThermoFisher, Catalog number C10423) were added to one of the three replicates using the HP D300 Digital Dispenser (Tecan). Caspase 3/7 induction was measured as a proxy for apoptosis induced by the treatments. Cells were treated for 72 h to 96 h depending on their doubling time (Table 1), and Caspase 3/7 activation was measured every 24 h by microscopy using an InCell Analyzer 2000 (GE Healthcare) equipped with a 4× objective and FITC excitation/emission filters. At the end of the treatment cells were prepared for cell counting by microscopy. Cells were fixed and permeabilised for 45 minutes in 4% PFA (Electron Microscopy Sciences, Catalog number 15714), 0.12% TX-100 (Electron Microscopy Sciences, Catalog number 22140) in PBS (Boston Bioproducts, Catalog number BM-220). After washing cells three times with PBS their DNA was stained for 30 minutes with Hoechst 33342 (ThermoFisher, Catalog number H3570) at a final concentration of 4 μg/mL. Cells were washed three times with PBS and then plates were heat-sealed using a PlateLoc (Agilent Technologies) with aluminum seals (Agilent Technologies, Catalog number 06644-001) and stored at 4° C. until imaging. All cells per well/treatment were captured in a single image by fluorescence microscopy using an InCell Analyzer 2000 (GE Healthcare) equipped with a 4× objective and DAPI excitation/emission filters.
(§3) Images were analyzed after adapting previously described methods (Horn, Sandmann et al. 2011, Nat. Methods 8(4): 341-346) and using the Bioconductor package EBImage in R (Pau, Fuchs et al. 2010, Bioinformatics 26(7):979-981). Objects in both channels, DAPI (for Hoechst/DNA) and FITC (for Caspase 3/7), were segmented separately by adaptive thresholding and counted. A threshold for Caspase 3/7 positive objects was defined manually per cell line after comparing negative controls (DMSO) and positive controls (Staurosporine). By analyzing 17 additional object/nuclei features in the DNA channel (shape and intensity features) debris/fragmented nuclei were identified. To this end per cell line the distributions of the additional features between positive controls (Staurosporine) and negative controls (DMSO) were compared manually. […]

A further assay concerns HCT-116. The description is as above. Conditions: Homo sapiens; HCT-116, single agent, 72 h, cell count relative to DMSO. On the procedure:
as §1, §2, §3

The test system of another assay is LS-180. The assay is described as above. The note with it: Homo sapiens, LS180; LS-160 (so in the source), single agent, 72 h, cell count relative to DMSO. On the procedure:
as §1, §2, §3

The test system of another assay is LoVo. Described as above. The note with it: Homo sapiens, single agent, 96 h, cell count relative to DMSO. On the procedure:
as §1, §2, §3

The next assay relates to RKO. The assay is described as above. The note with it: Homo sapiens, single agent, 72 h, cell count relative to DMSO. On the procedure:
as §1, §2, §3

Assay [1] relates to 5 TP53 wild type colorectal cancer cell lines. The assay can be described thus: Cell proliferation over the cell line panel, Example 3. Conditions: Example 3, panel of 5 lines, 13 nM-10 μM. As to the method:
To test the effect of the combination of COMPOUND A, COMPOUND B, and COMPOUND C on cell proliferation cells were plated in black 384-well microplates with clear bottom (Matrix/Thermo Scientific, Catalog number 4332) in 50 μL media per well at cell densities between 500 and 1250 cells/well (Table 1 above) and allowed to incubate at 37 degrees, 5% CO2 for 24 h. After 24 h one 384-well plate per cell line was prepared for cell counting by microscopy (see below) without receiving treatment (=‘baseline’). The other cell plates were treated by transferring 25 nL of the 2000× compound from drug master plates using an ATS acoustic liquid dispenser (ECD Biosystems) and resulting in a final 1× concentration. COMPOUND A was used over a final concentration range of 13 nM-10 μM, COMPOUND B was used over a final concentration range of 13 nM-10 μM, and COMPOUND C was used over a final concentration range of 13 nM-10 μM (7 1:3 dilution steps). In order to assess the effect of the triple combination all individual COMPOUNDS (A, B, C), all three pair wise combinations (A+B, A+C, B+C), and the triple combination (A+B+C) were tested in the same experiment. […] Caspase 3/7 induction was measured as a proxy for apoptosis induced by the treatments. Cells were treated for 72 h to 96 h depending on their doubling time (Table 1), and Caspase 3/7 activation was measured every 24 h by microscopy using an InCell Analyzer 2000 (GE Healthcare) equipped with a 4× objective and FITC excitation/emission filters. […] All cells per well/treatment were captured in a single image by fluorescence microscopy using an InCell Analyzer 2000 (GE Healthcare) equipped with a 4× objective and DAPI excitation/emission filters.
Images were analyzed after adapting previously described methods (Horn, Sandmann et al. 2011, Nat. Methods 8(4): 341-346) and using the Bioconductor package EBImage in R (Pau, Fuchs et al. 2010, Bioinformatics 26(7):979-981). Objects in both channels, DAPI (for Hoechst/DNA) and FITC (for Caspase 3/7), were segmented separately by adaptive thresholding and counted. […]

pIC50: −log10 of the molar value.

The pIC50 is the IC50 on a negative log10 scale, so that one unit is a factor of ten. Take `CC1(C)CCC(c2ccc(Cl)cc2)=C(CN2CCN(c3ccc(C(=O)NS(=O)(=O)c4ccc(N[C@H](CCN5CCOCC5)CSc5ccccc5)c(S(=O)(=O)C(F)(F)F)c4)cc3)CC2)C1` [COMPOUND C, 4-[4-[[2-(4-Chlorophenyl)-5,5-dimethyl-1-cyclohexen-1-yl]methyl]-1-piperazinyl]-N-[[4-[[(1R)-3-(4-morpholinyl)-1-[(phenylthio)methyl]propyl]amino]-3-[(trifluoromethyl)sulfonyl]phenyl]sulfonyl]benzamide, reference compound]: the pIC50 in the assay with GP2d, with HCT-116, with LS-180, in the assay on LoVo and with RKO was less than 5.00 throughout. Moreover, in assay [1], the “Single agent growth inhibition, in words” value was “no single agent efficacy”.

The values above are taken from patent publication US20180318275A1, “COMBINATION THERAPY USING PI3K INHIBITOR AND MDM2 INHIBITOR” (Novartis AG, priority 2015, published 2018).
